Source: patent US20230331718A1, “COMPOSITIONS FOR MODULATING SPLICING” (Skyhawk Therapeutics, Inc., priority 2020, published 2023)

Tests used:
SMN2 Protein = assay: SMN Protein Assay (MSD); type: cell-based, human; details: SMA patient fibroblasts, 48 hours, 0.6 nM to 2.5 µM
Experimental: Spinal muscular atrophy (SMA) patient fibroblasts were plated in 96-well plates at 7,000 cells/well. Compounds were added in concentrations ranging from 0.6 nM to 2.5 µM, incubated for 48 hours and the cells were lysed with 100 µL of lysis buffer. 20 µL of lysate was used for SMN protein measurement by Mesoscale Discovery (MSD) assay developed by PharmOptima (Michigan). A standard curve prepared with SMN protein ranging from 1 µg/ml to 19.5pg/ml was used in each MSD plate to calculate the absolute SMN protein amount in each sample.

[1] = test system: SMN2 Splicing D7 (SMN Δ7 transcript); assay: SMN Quantitative Splicing Assay (qPCR); type: cell-based, human; details: Homo sapiens, Fibroblast, 24 h, SMA patient fibroblasts (GM03813), 2.5 µM to 0.6 nM
Experimental: Spinal muscular atrophy (SMA) patient fibroblasts (GM03813, Coriell) were plated in 96-well plates at 50,000 cells/well. […] Treated cells were lysed and cDNA synthesized using the Fast Advanced Cells-to-Ct kit (Thermofisher A35378) according to the manufacturer’s instructions. 2 µL of each cDNA were used in qPCR reactions. […] Reactions were run in a Quant Studio 6 qPCR instrument with default settings.

SMILES | EC50 (SMN2 Protein) [nM] | IC50 [1] [nM]
[2H]C([2H])([2H])n1nc(F)c2cc(-c3ncc(N(C)[C@H]4C[C@@H]5CCC(N5)[C@H]4F)nn3)c(O)cc2c1=O [Compound 191] | 0.01 to 15 | 0.01 to 15
[2H]C([2H])([2H])N(c1cnc(-c2cc3ncn(C([2H])([2H])[2H])c(=O)c3cc2O)nn1)[C@H]1C[C@@H]2CCC(N2)[C@H]1F [Compound 175] | 0.01 to 15 | 0.01 to 15
CN(c1cnc(-c2cc3cnn(C)c(=O)c3cc2O)nn1)[C@@H]1CC2CCC(N2)[C@@H]1F (single isomer, unassigned) [Compound 2A] | 0.01 to 15 | 0.01 to 15
CCn1ccc2cc(O)c(-c3ncc(N(C)[C@H]4CC5CC[C@@H](N5)[C@H]4F)nn3)cc2c1=O [Compound 84] | 0.01 to 15 | 0.01 to 15
CCc1cc(=O)c2cc(-c3ncc(N(C)[C@@H]4C[C@H]5CCC(N5)[C@@H]4F)nn3)c(O)cc2o1 [Compound 117] | 16 to 50 | 51 to 100
[2H]C([2H])([2H])N(c1cnc(-c2cc3c(F)cn(C([2H])([2H])[2H])c(=O)c3cc2O)nn1)[C@@H]1C[C@H]2CC[C@H](N2)[C@@H]1F [Compound 194] | 0.01 to 15 | 0.01 to 15
CN(c1cnc(-c2cc3c(=O)ccoc3cc2O)nn1)[C@@H]1CC2CC[C@H](N2)[C@@H]1F [Compound 75] | 16 to 50 | 101 to 500
Cc1cc2cc(O)c(-c3ncc(N(C)[C@H]4C[C@@H]5CCCC(N5)[C@H]4F)nn3)cc2cn1 [Compound 78] | 0.01 to 15 | 0.01 to 15
CN(c1cnc(-c2cc3cnn(C)c(=O)c3cc2O)nn1)[C@H]1C[C@]2(C)CCC(N2)[C@H]1F [Compound 185] | 0.01 to 15 | 0.01 to 15
CN(c1cnc(-c2cc3nccnc3cc2O)nn1)C1CC2CCC(N2)C1F (centres unmarked) [Compound 20] | 16 to 50 | 16 to 50
CCn1ccc2cc(-c3ncc(N(C)C4CC5CCC(N5)[C@@H]4F)nn3)c(O)cc2c1=O (some centres unmarked) [Compound 33] | 16 to 50 | 101 to 500
CN(c1cnc(-c2cc3ccn(C(F)F)c(=O)c3cc2O)nn1)[C@@H]1CC2CCC(N2)[C@@H]1F (some centres unmarked) [Compound 156] | 0.01 to 15 | 16 to 50
CC(C)n1ncc2cc(-c3ncc(N(C)C4CC5CCC(N5)[C@@H]4F)nn3)c(O)cc2c1=O (some centres unmarked) [Compound 29] | 501 to 10000 | 501 to 10000
CN(c1cnc(-c2cc3cccnc3cc2O)nn1)C1CC2CCC(N2)[C@H]1F (some centres unmarked) [Compound 24] | 16 to 50 | 16 to 50
[2H]C([2H])([2H])N(c1cnc(-c2cc3c(F)cn(C([2H])([2H])[2H])c(=O)c3cc2O)nn1)[C@H]1C[C@@H]2CC[C@@H](N2)[C@H]1C [Compound 193] | 0.01 to 15 | 0.01 to 15
CN(c1cnc(-c2cc3oc(C(F)(F)F)cc(=O)c3cc2O)nn1)[C@@H]1CC2CCCC(N2)[C@@H]1F (some centres unmarked) [Compound 161] | 0.01 to 15 | 51 to 100
CN(c1cnc(-c2cc3ccn(C)c(=O)c3cc2O)nn1)[C@H]1C[C@@H]2CC[C@@](C)(N2)[C@H]1F [Compound 171] | 0.01 to 15 | 0.01 to 15
CN(c1cnc(-c2cc3ccn(C)c(=O)c3cc2O)nn1)[C@H]1CC2CC[C@@H](N2)[C@H]1F [Compound 7A] | 0.01 to 15 | 0.01 to 15
CN(c1cnc(-c2cc3c(F)cn(C)c(=O)c3cc2O)nn1)[C@H]1C[C@]2(C)CCC(N2)[C@H]1F [Compound 38] | 0.01 to 15 | 0.01 to 15
CCn1cnc2cc(-c3ncc(N(C)C4CC5CCCC(N5)C4F)nn3)c(O)cc2c1=O (centres unmarked) [Compound 126] | 51 to 100 | 101 to 500
CN(c1cnc(-c2cc3c(=O)n(C)cnc3cc2O)nn1)C1CC2CCC(N2)[C@H]1F (some centres unmarked) [Compound 139] | 0.01 to 15 | 16 to 50
Cc1nc2cc(O)c(-c3ncc(N(C)[C@@H]4C[C@@]5(C)CC[C@](C)(N5)[C@@H]4F)nn3)cc2nc1C [Compound 88] | 51 to 100 | 16 to 50
CCN1C=C(F)c2cc(-c3ncc(N(C)[C@@H]4CC5CCC(N5)[C@@H]4F)nn3)c(O)cc2O1 (some centres unmarked) [Compound 162] | 0.01 to 15 | 51 to 100
Cc1cnc2cc(-c3ncc(N(C)[C@H]4C[C@@H]5CCC(N5)[C@H]4F)nn3)c(O)cc2n1 (single isomer, unassigned) [Compound 54] | 101 to 500 | 16 to 50
Cc1cnc2cc(O)c(-c3ncc(N(C)[C@@H]4CC5CCC(N5)[C@@H]4F)nn3)cc2n1 (some centres unmarked) [Compound 51] | 51 to 100 | 51 to 100
CC(C)n1cnc2cc(-c3ncc(N(C)C4CC5CCC(N5)[C@H]4F)nn3)c(O)cc2c1=O (some centres unmarked) [Compound 30] | 101 to 500 | 101 to 500

SMILES | EC50 (SMN2 Protein) [nM] | IC50 [1] [nM]
[2H]C([2H])([2H])n1cnc2cc(-c3ncc(N(C)[C@@H]4CC5CC[C@H](N5)[C@@H]4F)nn3)c(O)cc2c1=O [Compound 178] | 0.01 to 15 | 0.01 to 15
CN(c1cnc(-c2cc3c(=O)ccoc3cc2O)nn1)[C@@H]1CC2CCCC(N2)[C@@H]1F (some centres unmarked) [Compound 109] | 501 to 10000 | 501 to 10000
CN(c1cnc(-c2cc3c(F)cn(C)c(=O)c3cc2O)nn1)[C@H]1CC2CC(F)(F)C(C1)N2 (some centres unmarked) [Compound 210] | 0.01 to 15 | 0.01 to 15
CCn1cc(F)c2cc(-c3ncc(N(C)[C@H]4C[C@@H]5CCC(N5)[C@H]4F)nn3)c(O)cc2c1=O [Compound 163, 2-Ethyl-4-fluoro-6-(6-{[(2R,3S,5S)-2-fluoro-8-azabicyclo[3.2.1]octan-3-yl](methyl)amino}-1,2,4-triazin-3-yl)-7-hydroayisoquinolin-1-one] | 0.01 to 15 | 0.01 to 15
CN(c1cnc(-c2cc3c(F)cn(C)c(=O)c3cc2O)nn1)[C@@H]1C[C@@]2(C)CCC(N2)[C@@H]1F [Compound 37] | 0.01 to 15 | 0.01 to 15
Cc1cc2cc(-c3ncc(N(C)[C@H]4CC5CCCC(N5)[C@H]4F)nn3)c(O)cc2cn1 (some centres unmarked) [Compound 48] | 0.01 to 15 | 0.01 to 15
Cc1coc2cc(-c3ncc(N(C)[C@H]4CC5CCCC(N5)[C@H]4F)nn3)c(O)cc2c1=O (some centres unmarked) [Compound 102] | 0.01 to 15 | 0.01 to 15
CCn1cnc2cc(-c3ncc(N(C)[C@H]4CC5CCC[C@@H](N5)[C@H]4F)nn3)c(O)cc2c1=O [Compound 125] | 16 to 50 | 0.01 to 15
Cc1nc2cc(O)c(-c3ncc(N(C)[C@@H]4CC5CC[C@H](N5)[C@@H]4F)nn3)cc2nc1C [Compound 55] | 16 to 50 | 16 to 50
CN(c1cnc(-c2cc3ccn(C)c(=O)c3cc2O)nn1)[C@@H]1C[C@H]2CCC(N2)[C@@H]1F [Compound 7B] | 0.01 to 15 | 16 to 50
CN(c1cnc(-c2cc3cnn(C)c(=O)c3cc2O)nn1)[C@H]1C[C@]2(C)COC[C@](C)(C1)N2 [Compound 151] | 0.01 to 15 | 0.01 to 15
CCn1c(C)c(F)c2cc(-c3ncc(N(C)[C@H]4C[C@@H]5CCC(N5)[C@H]4F)nn3)c(O)cc2c1=O [Compound 223] | 0.01 to 15 | 0.01 to 15
Cc1c(F)c2cc(-c3ncc(N(C)[C@H]4C[C@@H]5CC[C@@H](N5)[C@H]4F)nn3)c(O)cc2c(=O)n1C [Compound 204] | 0.01 to 15 | 0.01 to 15
CN(c1cnc(-c2cc3ccn(C(F)F)c(=O)c3cc2O)nn1)[C@H]1CC2CCC(N2)[C@H]1F (some centres unmarked) [Compound 155] | 0.01 to 15 | 0.01 to 15
Cc1ncc2cc(O)c(-c3ncc(N(C)[C@H]4CC5CCC(N5)[C@H]4F)nn3)cc2n1 (some centres unmarked) [Compound 40] | 0.01 to 15 | 16 to 50
CN(c1cnc(-c2cc3cc[nH]c(=O)c3cc2O)nn1)[C@H]1C[C@@H]2CCC(N2)[C@H]1F [Compound 169] | 0.01 to 15 | 16 to 50
CN(c1cnc(-c2cc3oc(C(F)(F)F)cc(=O)c3cc2O)nn1)[C@H]1C[C@@H]2CCCC(N2)[C@H]1F [Compound 166] | 0.01 to 15 | 16 to 50
CCc1cc(=O)c2cc(-c3ncc(N(C)[C@@H]4C[C@H]5CCCC(N5)[C@@H]4F)nn3)c(O)cc2o1 [Compound 115] | 16 to 50 | 101 to 500
CCn1ccc2cc(-c3ncc(N(C)C4CC5CCCC(N5)C4F)nn3)c(O)cc2c1=O (centres unmarked) [Compound 122] | 501 to 10000 | 51 to 100
CN(c1cnc(-c2cc3occc(=O)c3cc2O)nn1)[C@@H]1CC2COC[C@@H](C1)N2 [Compound 69] | 0.01 to 15 | 0.01 to 15
CN(c1cnc(-c2cc3cnn(C)c(=O)c3cc2O)nn1)[C@@H]1C[C@@]2(C)CC[C@H](N2)[C@@H]1F [Compound 186] | 0.01 to 15 | 16 to 50
CN(c1cnc(-c2cc3cc[nH]c(=O)c3cc2O)nn1)[C@@H]1CC2CC[C@H](N2)[C@@H]1F [Compound 170] | 16 to 50 | 51 to 100
Cc1nc2cc(-c3ncc(N(C)[C@@H]4CC5CCC(N5)[C@@H]4F)nn3)c(O)cc2c(=O)n1C (some centres unmarked) [Compound 213] | 0.01 to 15 | 16 to 50
CN(c1cnc(-c2cc3ccn(C)c(=O)c3cc2O)nn1)[C@@H]1C[C@@]2(C)CC[C@H](N2)[C@@H]1F [Compound 174] | 0.01 to 15 | 0.01 to 15
CCn1ncc2cc(-c3ncc(N(C)[C@@H]4CC5CC[C@H](N5)[C@@H]4F)nn3)c(O)cc2c1=O [Compound 164] | 16 to 50 | 51 to 100
[2H]C([2H])([2H])N(c1cnc(-c2cc3c(F)cn(CC)c(=O)c3cc2O)nn1)[C@@H]1C[C@H]2CC[C@H](N2)[C@@H]1F [Compound 202] | 0.01 to 15 | 51 to 100
